In paper PMC6222798, “A Novel Class of Tyrosyl-DNA Phosphodiesterase 1 Inhibitors That Contains the Octahydro-2H-chromen-4-ol Scaffold” (Molecules : A Journal of Synthetic Chemistry and Natural …, 2018):
Like-named read-outs stand apart in the source and are kept apart here.

Key:
Tdp1 [1] = target: T1, Tdp1 (Homo sapiens, UniProt Q9NUW8); conditions: Figure 1; cited from earlier work
T1 construct: inferred from pET 16B vector and Ni-chelating resin; made in house; host or cells: Escherichia coli BL21(DE3)

Tdp1 [2] = target: T1, Tdp1; assay: Real-time oligonucleotide biosensor-based Tdp1 inhibition assay; format: biochemical
Procedure: The inhibition potency of our synthesised compounds against Tdp1 was evaluated by using a real-time oligonucleotide biosensor-based assay. In this assay, Tdp1 catalyses the removal of fluorophore quenchers from the 3′-end of a modified DNA substrate. […] Hexadecameric oligonucleotide was selected as a Tdp1 substrate, as it contains 5(6)-carboxyfluorescein (FAM) at the 5′-end and fluorophore quencher BHQ1 (Black Hole Quencher-1) at the 3′-end. This approach was used to determine the inhibitory properties of all the chromenes.
The pET 16B-Tdp1 was kindly provided by Dr. K.W. Caldecott (University of Sussex, United Kingdom). Recombinant Tdp1 was expressed in Escherichia coli BL21(DE3) and was purified by chromatography on Ni-chelating resin and phosphocellulose P11, as described in [29].
Real-time Tdp1 activity measurements were carried out as described in [9]. In brief, Tdp1-biosensor (50 nM) was incubated in a buffer that contains 50 mM Tris-HCl pH 8.0, 50 mM NaCl, and 7 mM β-mercaptoethanol (200 μL). The mixture was then supplemented with purified Tdp1 (1.3 nM) and various concentrations of the inhibitor. Fluorescence measurements (Ex485/Em520 nm) were carried out during the linear phase of reaction (from 0 to 8 min) every 55 s. The reactions were incubated at a constant temperature of 26 °C using a POLARstar OPTIMA fluorimeter (BMG LABTECH). The influence of the compounds was evaluated by comparing the fluorescence increase rate in their presence to that of 1.5% DMSO control wells. The data were imported into the MARS Data Analysis 2.0 program (BMG LABTECH), and IC50 values were calculated by non-linear curve fitting.

[3] = target: T2, human Tdp1 (residues 149-608) (Homo sapiens, UniProt Q9NUW8); assay: Intrinsic protein fluorescence-based Tdp1 binding assay; conditions: supplementary figure legends; Tdp1 10 μM, 20 mM Tris, 250 mM NaCl, pH 8, triplicate
T2 construct: human Tdp1 (residues 149-608); made in house; host or cells: Escherichia coli BL21(DE3)
Procedure: In addition to the inhibition assay, the binding of our compounds to Tdp1 was also evaluated. An intrinsic protein fluorescence-based assay, which we have previously applied to study the binding of esters combining monoterpenoid and adamantane fragments, was applied. In agreement with the inhibition data, all our compounds were relatively strong binders to Tdp1, with dissociation constants (KD) in the low μM region (Table 1 and Supplementary Figures S1–S7). […] This is possibly due to the large hydrophobic surface of Tdp1. The slight discrepancy between the measured KD and IC50 values is likely due to these non-specific binding events.
Synthetic DNA encoding human Tdp1 (residues 149-608 [2]) was cloned into pET-28a(+) (GenScript), which was then transformed into Escherichia coli BL21(DE3) for recombinant protein production. Protein production was induced with 1 mM IPTG at 28 °C with overnight incubation. Tdp1 was purified using affinity and size exclusion chromatography. Fluorescence was measured using a PerkinElmer EnSpire Multimode Reader. Tdp1 concentration was 10 μM and compound concentrations were 1 μM, 2.5 μM, 5 μM, 10 μM, 15 μM, 20 μM, 30 μM, 50 μM, 100 μM, 200 μM, 350 μM, 500 μM, and 750 μM. Buffer was 20 mM Tris and 250 mM NaCl (pH 8). Excitation wavelength was 280 nm and intrinsic fluorescence was measured between 300 and 450 nm. Control experiments with Tdp1 or compound on its own were also conducted. Background fluorescence arising from the compounds was subtracted from the final spectrum. The total volume per well was 30 μL. Dissociation constant (KD) values were calculated using the following formula (1), which takes non-specific binding into account. I = Imax ×[LT]/KD+[LT] +Ns[LT]
I indicates changes in fluorescence intensity from the titrations, Imax indicates the maximum fluorescence intensity change, [LT] is the titrated ligand concentration, and Ns is the non-specific term. Non-linear curve fitting was conducted using SigmaPlot 13.0 (Systat Software, San Jose, CA, USA). Experiments were conducted in triplicate and the errors shown are standard derivations.

T2 sequence (Q9NUW8 149-608): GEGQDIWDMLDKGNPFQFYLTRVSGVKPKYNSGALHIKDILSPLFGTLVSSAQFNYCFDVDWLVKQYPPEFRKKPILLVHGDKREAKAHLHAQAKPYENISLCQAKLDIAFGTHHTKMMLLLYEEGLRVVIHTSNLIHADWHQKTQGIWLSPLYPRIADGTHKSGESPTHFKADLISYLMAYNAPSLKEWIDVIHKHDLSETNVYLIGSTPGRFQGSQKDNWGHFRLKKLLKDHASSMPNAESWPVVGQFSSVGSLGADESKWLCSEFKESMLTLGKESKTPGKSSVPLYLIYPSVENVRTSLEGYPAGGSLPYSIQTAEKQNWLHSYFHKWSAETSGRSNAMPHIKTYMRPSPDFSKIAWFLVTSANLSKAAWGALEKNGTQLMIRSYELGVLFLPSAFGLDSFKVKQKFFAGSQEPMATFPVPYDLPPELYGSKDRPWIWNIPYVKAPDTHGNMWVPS
T1 sequence (Q9NUW8 whole entry): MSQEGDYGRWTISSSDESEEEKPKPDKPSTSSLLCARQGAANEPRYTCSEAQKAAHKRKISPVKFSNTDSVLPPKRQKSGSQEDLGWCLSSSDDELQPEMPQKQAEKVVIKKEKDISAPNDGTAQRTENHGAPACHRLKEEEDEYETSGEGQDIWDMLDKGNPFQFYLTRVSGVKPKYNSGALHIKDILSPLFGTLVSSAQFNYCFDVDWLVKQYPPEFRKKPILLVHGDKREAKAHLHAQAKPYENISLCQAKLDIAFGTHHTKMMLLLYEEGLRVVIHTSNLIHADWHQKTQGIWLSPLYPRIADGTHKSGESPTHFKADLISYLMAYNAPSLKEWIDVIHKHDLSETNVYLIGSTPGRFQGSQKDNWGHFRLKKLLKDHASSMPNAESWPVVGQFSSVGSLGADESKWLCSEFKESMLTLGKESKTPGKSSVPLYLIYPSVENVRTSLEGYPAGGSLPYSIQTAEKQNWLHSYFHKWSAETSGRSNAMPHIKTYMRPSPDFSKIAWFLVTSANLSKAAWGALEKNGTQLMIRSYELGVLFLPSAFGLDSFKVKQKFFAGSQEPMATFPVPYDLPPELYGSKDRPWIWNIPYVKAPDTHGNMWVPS

Row | SMILES | IC50 (Tdp1 [1]) [µM] | IC50 (Tdp1 [2]; Table 1, (4R) diastereomer) [µM] | Kd [3] [µM] | IC50 (Tdp1 [2]; Table 1, (4S) diastereomer) [µM] | IC50 (Tdp1 [2]; Table 2) [µM]
1 | O=c1cccc([C@H]2[C@H](c3ccc(O)cc3)[C@H](c3cccc(=O)o3)[C@H]2c2ccc(O)cc2)o1 [Compound 2, achyrodimer F] | 1 |  |  |  | 
2 | CC(=O)Nc1ccc([C@H]2C[C@@](C)(O)[C@@H]3CC[C@@H](C)C[C@H]3O2)s1 [(4R)-10, N-(5-((2R,4R,4aR,7R,8aR)-4-Hydroxy-4,7-dimethyloctahydro-2H-chromen-2-yl)thiophen-2-yl)acetamide] |  | 2.9 ± 0.8 |  |  | 
3 | C[C@@H]1CC[C@@H]2[C@H](C1)O[C@@H](c1ccc(NC(=O)C34CC5CC(CC(C5)C3)C4)s1)C[C@@]2(C)O [(4R)-13, N-(5-((2R,4R,4aR,7R,8aS)-4-Hydroxy-4,7-dimethyloctahydro-2H-chromen-2-yl)thiophen-2-yl)adamantane-1-carboxamide] |  | 2.8 ± 0.6 | 12.4 ± 7.5 |  | 
4 | C[C@@H]1CC[C@@H]2[C@H](C1)O[C@@H](c1ccc(N)s1)C[C@]2(C)O [(4S)-9, (2R,4S,4aR,7R,8aS)-4,7-dimethyl-2-(5-aminothiophen-2-yl)octahydro-2H-chromen-4-ol] |  |  |  | > 15 | > 15
5 | C[C@@H]1CC[C@@H]2[C@H](C1)O[C@@H](c1ccc(NC(=O)C34CC5CC(CC(C5)C3)C4)s1)C[C@]2(C)O [(4S)-13, N-(5-((2R,4S,4aR,7R,8aS)-4-Hydroxy-4,7-dimethyloctahydro-2H-chromen-2-yl)thiophen-2-yl)adamantane-1-carboxamide] |  |  | 17.9 ± 3.4 | 1.24 ± 0.02 | 
6 | C[C@@H]1CC[C@@H]2[C@@H](C1)O[C@@H](c1ccc([N+](=O)[O-])s1)C[C@]2(C)O [(4S)-8, (2R,4aR,7R,8aS)-4,7-Dimethyl-2-(5-nitrothiophen-2-yl)octahydro-2H-chromen-4-ols] |  |  | 30.6 ± 9.33 | > 15 | > 15
7 | C[C@@H]1CC[C@@H]2[C@H](C1)O[C@@H](c1ccc(N)s1)C[C@@]2(C)O [(4R)-9, (2R,4R,4aR,7R,8aS)-4,7-Dimethyl-2-(5-aminothiophen-2-yl)octahydro-2H-chromen-4-ol] |  | > 15 |  |  | > 15
8 | C[C@@H]1CC[C@@H]2[C@@H](C1)O[C@@H](c1ccc(NC(=O)c3ccccc3)s1)C[C@@]2(C)O [(4R)-12, N-(5-((2R,4R,4aR,7R,8aR)-4-Hydroxy-4,7-dimethyloctahydro-2H-chromen-2-yl)thiophen-2-yl)benzamide] |  | 3.3 ± 0.2 |  |  | 
9 | C[C@@H]1CC[C@@H]2[C@@H](C1)O[C@@H](c1ccc(NC(=O)c3ccccc3)s1)C[C@]2(C)O [(4S)-12, N-(5-((2R,4S,4aR,7R,8aR)-4-Hydroxy-4,7-dimethyloctahydro-2H-chromen-2-yl)thiophen-2-yl)benzamide] |  |  | 24.5 ± 5.7 | 5 ± 1.5 | 
10 | CC(=O)Nc1ccc([C@H]2C[C@](C)(O)[C@@H]3CC[C@@H](C)C[C@H]3O2)s1 [(4S)-10, N-(5-((2R,4S,4aR,7R,8aR)-4-Hydroxy-4,7-dimethyloctahydro-2H-chromen-2-yl)thiophen-2-yl)acetamide] |  |  |  | 5.8 ± 3 | 
11 | CC1(C)[C@H]2CC=C(COc3ccc4c5c(c(=O)oc4c3)CCC5)[C@@H]1C2 [Compound 3] | 0.675 |  |  |  | 
12 | C[C@@H]1CC[C@@H]2[C@@H](C1)O[C@@H](c1ccc(NC(=O)C(F)(F)F)s1)C[C@@]2(C)O [(4R)-11, 2,2,2-Trifluoro-N-(5-((2R,4R,4aR,7R,8aR)-4-hydroxy-4,7-dimethyloctahydro-2H-chromen-2-yl)thiophen-2-yl)acetamide] |  | 4 ± 0.4 | 19.8 ± 2.4 |  | 
13 | C[C@@H]1CC[C@@H]2[C@@H](C1)O[C@@H](c1ccc(NC(=O)C(F)(F)F)s1)C[C@]2(C)O [(4S)-11, 2,2,2-Trifluoro-N-(5-((2R,4S,4aR,7R,8aR)-4-hydroxy-4,7-dimethyloctahydro-2H-chromen-2-yl)thiophen-2-yl)acetamide] |  |  | 2 ± 1.2 | 1.4 ± 0.3 | 
14 | C[C@@H]1CC[C@@H]2[C@@H](C1)O[C@@H](c1ccc([N+](=O)[O-])s1)C[C@@]2(C)O [(4R)-8, (2R,4aR,7R,8aS)-4,7-Dimethyl-2-(5-nitrothiophen-2-yl)octahydro-2H-chromen-4-ols] |  | > 15 | 23.3 ± 7.4 |  | > 15
